Measurements: paper PMC7827406, “Structure–Activity Relationship (SAR) Study of Spautin-1 to Entail the Discovery of Novel NEK4 Inhibitors” (International Journal of Molecular Sciences, 2021)
Like-named read-outs stand apart in the source and are kept apart here.

Tests used:
Assay in all cases: biochemical
Parameters in all cases: Eurofins KinaseProfiler full panel at Km ATP, residual kinase activity (%) relative to DMSO
BTK(h) = BTK(h) (Homo sapiens, UniProt Q06187)
Method in brief: (§1)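 Two 10 µM single-concentration screens were run: a competition-binding screen, in which DNA-tagged kinase bound to immobilized ligands was quantified by qPCR, and a radiometric activity panel at Km ATP. Each is expressed as residual kinase activity (%).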

EphA8(h) = molecular target: T1, EphA8(h) (Homo sapiens, UniProt P29322)
T1 sequence (P29322 1-1005): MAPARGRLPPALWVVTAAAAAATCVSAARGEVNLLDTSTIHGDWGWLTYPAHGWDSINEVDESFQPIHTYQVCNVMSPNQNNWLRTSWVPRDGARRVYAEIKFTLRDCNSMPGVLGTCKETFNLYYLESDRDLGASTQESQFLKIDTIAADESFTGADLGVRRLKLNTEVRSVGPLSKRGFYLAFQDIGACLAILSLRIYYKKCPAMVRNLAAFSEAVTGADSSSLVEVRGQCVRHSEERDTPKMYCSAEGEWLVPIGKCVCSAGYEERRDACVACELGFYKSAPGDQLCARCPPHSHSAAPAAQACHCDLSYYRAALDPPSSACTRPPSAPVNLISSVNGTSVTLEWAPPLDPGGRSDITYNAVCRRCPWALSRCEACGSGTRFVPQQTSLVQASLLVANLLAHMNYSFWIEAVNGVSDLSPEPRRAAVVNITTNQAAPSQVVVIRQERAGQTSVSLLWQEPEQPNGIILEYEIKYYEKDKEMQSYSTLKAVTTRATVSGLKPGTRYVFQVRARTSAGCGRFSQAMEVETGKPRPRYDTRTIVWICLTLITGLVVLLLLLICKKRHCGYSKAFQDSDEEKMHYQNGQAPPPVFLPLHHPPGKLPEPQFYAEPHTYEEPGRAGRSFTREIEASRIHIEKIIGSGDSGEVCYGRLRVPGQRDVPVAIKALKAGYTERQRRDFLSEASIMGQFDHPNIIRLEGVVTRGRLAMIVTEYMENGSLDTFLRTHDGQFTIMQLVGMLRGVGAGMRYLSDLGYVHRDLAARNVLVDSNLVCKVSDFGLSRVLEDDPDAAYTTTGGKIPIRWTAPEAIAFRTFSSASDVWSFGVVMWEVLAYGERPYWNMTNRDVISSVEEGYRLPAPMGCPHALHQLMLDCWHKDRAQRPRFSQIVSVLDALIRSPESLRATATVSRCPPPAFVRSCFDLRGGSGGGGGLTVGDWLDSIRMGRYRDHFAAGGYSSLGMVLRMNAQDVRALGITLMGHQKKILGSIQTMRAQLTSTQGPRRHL
Method in brief: as §1

Flt3(D835Y)(h) = molecular target: T2, Flt3(D835Y)(h) (Homo sapiens, UniProt P36888, D835Y)
T2 sequence (P36888 1-993 D835Y): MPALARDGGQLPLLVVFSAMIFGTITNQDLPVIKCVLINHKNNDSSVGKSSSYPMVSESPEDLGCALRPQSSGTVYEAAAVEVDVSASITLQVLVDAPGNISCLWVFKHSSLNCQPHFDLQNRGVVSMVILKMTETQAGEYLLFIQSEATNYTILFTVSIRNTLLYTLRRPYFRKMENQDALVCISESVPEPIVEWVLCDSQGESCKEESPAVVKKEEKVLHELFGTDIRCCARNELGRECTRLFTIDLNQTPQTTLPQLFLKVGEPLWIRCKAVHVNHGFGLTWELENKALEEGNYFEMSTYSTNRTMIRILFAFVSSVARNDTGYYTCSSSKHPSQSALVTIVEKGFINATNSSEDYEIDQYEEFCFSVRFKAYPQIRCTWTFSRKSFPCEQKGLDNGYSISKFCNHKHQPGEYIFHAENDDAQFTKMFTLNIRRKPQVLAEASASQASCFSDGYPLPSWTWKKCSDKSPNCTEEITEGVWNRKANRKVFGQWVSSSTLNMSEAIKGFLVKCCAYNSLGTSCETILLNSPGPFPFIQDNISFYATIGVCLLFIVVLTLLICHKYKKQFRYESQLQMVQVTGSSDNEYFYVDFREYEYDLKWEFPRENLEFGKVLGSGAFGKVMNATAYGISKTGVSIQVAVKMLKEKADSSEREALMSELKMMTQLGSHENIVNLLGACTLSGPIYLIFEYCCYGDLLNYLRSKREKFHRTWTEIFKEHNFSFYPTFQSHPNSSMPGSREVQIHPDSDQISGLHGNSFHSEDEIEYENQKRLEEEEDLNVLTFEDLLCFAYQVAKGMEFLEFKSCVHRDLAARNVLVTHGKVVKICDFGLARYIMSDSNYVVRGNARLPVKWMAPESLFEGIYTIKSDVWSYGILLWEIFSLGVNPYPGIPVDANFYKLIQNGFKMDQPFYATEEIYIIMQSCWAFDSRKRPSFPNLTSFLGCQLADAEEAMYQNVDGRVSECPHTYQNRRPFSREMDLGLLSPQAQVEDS
Method in brief: as §1

Lck(h) activated = Lck(h) activated (Homo sapiens, UniProt P06239)
Chain of Lck(h) activated (P06239 whole entry): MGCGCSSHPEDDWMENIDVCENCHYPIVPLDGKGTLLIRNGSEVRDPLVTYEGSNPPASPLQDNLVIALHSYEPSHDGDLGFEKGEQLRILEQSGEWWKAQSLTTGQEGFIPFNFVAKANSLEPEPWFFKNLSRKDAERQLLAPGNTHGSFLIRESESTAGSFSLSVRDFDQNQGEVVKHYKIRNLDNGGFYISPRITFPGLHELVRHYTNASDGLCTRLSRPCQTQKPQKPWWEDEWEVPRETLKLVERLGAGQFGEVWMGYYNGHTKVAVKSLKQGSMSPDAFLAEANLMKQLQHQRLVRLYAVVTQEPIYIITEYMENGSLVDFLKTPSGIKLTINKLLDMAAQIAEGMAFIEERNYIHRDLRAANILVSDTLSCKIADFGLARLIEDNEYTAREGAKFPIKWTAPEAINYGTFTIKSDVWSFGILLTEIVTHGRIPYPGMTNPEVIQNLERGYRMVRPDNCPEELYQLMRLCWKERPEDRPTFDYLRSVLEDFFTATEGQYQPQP
Method in brief: as §1

STK39(h) = STK39(h) (Homo sapiens, UniProt Q9UEW8)
Method in brief: as §1

WNK1(h) = WNK1(h) (Homo sapiens, UniProt Q9H4A3)
Chain of WNK1(h) (Q9H4A3 whole entry): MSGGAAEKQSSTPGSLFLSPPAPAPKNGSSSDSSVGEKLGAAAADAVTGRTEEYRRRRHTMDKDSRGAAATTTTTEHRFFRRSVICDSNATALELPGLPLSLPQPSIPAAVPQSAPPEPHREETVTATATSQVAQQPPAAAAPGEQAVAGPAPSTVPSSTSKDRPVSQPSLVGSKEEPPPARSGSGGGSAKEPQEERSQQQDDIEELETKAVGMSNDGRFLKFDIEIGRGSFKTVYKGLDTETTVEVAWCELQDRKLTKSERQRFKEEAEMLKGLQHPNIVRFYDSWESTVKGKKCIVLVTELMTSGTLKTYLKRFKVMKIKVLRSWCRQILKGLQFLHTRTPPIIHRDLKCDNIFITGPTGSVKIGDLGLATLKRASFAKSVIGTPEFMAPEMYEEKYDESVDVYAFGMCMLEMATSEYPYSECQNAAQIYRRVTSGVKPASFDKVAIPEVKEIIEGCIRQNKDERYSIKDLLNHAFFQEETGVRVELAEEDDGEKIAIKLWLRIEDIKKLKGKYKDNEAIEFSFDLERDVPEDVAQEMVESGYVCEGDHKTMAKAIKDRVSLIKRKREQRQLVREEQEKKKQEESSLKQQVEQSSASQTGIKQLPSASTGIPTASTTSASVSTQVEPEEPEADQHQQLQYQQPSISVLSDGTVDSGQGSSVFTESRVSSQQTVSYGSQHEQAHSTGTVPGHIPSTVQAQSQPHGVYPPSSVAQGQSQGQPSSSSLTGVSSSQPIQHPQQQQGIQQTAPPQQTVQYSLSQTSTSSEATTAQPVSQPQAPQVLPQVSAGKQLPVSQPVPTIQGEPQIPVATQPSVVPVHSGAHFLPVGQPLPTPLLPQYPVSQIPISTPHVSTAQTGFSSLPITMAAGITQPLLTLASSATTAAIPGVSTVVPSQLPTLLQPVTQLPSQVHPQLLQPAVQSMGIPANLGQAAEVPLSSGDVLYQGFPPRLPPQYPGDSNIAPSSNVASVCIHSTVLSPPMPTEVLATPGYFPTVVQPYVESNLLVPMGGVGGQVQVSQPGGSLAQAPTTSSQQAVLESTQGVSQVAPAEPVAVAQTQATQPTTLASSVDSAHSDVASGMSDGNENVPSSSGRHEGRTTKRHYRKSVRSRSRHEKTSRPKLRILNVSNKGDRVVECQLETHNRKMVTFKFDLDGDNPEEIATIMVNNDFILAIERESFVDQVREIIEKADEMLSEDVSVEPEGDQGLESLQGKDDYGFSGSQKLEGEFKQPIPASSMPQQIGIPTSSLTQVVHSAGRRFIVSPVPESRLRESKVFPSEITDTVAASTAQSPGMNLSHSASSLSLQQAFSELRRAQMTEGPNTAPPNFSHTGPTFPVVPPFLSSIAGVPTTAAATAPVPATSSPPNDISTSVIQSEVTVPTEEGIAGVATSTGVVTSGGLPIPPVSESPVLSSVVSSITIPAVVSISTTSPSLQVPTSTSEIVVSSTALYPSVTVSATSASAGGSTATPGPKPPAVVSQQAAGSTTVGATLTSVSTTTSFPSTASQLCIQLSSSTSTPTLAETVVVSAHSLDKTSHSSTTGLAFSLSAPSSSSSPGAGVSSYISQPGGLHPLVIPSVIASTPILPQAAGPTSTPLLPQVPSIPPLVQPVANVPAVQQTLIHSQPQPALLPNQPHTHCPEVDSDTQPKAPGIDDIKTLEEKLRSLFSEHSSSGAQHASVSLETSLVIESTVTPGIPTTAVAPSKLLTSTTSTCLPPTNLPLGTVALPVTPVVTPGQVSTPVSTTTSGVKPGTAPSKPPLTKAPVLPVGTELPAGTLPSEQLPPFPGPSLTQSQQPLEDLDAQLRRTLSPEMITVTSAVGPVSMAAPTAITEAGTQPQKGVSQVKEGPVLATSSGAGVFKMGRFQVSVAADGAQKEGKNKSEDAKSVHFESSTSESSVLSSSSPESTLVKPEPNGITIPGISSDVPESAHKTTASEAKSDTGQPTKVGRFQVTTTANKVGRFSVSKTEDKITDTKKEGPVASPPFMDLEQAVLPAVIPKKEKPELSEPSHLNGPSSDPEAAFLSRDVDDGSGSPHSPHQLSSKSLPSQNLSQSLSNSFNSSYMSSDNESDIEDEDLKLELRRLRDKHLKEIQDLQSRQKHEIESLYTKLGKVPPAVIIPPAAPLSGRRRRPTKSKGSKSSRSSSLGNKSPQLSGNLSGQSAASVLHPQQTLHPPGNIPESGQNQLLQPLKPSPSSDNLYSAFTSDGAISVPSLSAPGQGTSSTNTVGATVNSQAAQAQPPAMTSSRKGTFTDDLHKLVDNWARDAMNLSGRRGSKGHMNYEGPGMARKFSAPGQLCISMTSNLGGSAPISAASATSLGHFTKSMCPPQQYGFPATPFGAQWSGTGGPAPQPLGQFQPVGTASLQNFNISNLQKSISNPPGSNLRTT
Method in brief: as §1

[1] = read-out: Residual activity (%) 5at
[2] = read-out: Residual activity (%) 5as
[3] = read-out: Residual activity (%) 5ay
[4] = read-out: Residual activity (%) Spautin-1 5aa

Chain of BTK(h) (Q06187 whole entry): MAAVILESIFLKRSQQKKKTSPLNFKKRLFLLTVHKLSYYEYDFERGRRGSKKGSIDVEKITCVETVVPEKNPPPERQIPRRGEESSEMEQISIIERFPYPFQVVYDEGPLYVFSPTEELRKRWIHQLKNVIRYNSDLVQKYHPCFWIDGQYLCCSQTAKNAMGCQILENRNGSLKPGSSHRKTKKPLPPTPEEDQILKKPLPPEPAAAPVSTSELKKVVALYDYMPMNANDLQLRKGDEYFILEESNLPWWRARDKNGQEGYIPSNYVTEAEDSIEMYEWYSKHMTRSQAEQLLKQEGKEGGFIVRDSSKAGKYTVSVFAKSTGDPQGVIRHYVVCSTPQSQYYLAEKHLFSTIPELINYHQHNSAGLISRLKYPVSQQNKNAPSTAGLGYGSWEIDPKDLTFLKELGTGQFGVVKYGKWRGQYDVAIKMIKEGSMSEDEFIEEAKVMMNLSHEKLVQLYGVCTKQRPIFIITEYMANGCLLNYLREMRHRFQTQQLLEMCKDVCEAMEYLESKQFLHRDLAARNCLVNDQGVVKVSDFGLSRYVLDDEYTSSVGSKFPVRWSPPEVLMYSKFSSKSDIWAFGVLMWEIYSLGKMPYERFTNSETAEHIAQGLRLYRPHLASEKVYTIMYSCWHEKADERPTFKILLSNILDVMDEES

Fc1ccc2ncnc(NCCc3ccc(Cl)cc3)c2c1 [5at, N-[2-(4-Chlorophenyl)Ethyl]-6-Fluoro-4-Quinazolinamine]
remaining activity at 10 µM (BTK(h); [1]): 96%
remaining activity at 10 µM (EphA8(h); [1]): 71%
remaining activity at 10 µM (Flt3(D835Y)(h); [1]): 80%
remaining activity at 10 µM (Lck(h) activated; [1]): 91%
remaining activity at 10 µM (STK39(h); [1]): 91%
remaining activity at 10 µM (WNK1(h); [1]): 92%

Fc1ccc(CCNc2ncnc3ccc(F)cc23)cc1 [5as, 6-Fluoro-N-[2-(4-Fluorophenyl)Ethyl]-4-Quinazolinamine]
remaining activity at 10 µM (BTK(h); [2]): 113%
remaining activity at 10 µM (EphA8(h); [2]): 88%
remaining activity at 10 µM (Flt3(D835Y)(h); [2]): 87%
remaining activity at 10 µM (Lck(h) activated; [2]): 100%
remaining activity at 10 µM (STK39(h); [2]): 100%
remaining activity at 10 µM (WNK1(h); [2]): 81%

COc1ccc2ncnc(Nc3cccc(F)c3)c2c1 [5ay, N-(3-Fluorophenyl)-6-Methoxy-4-Quinazolinamine]
remaining activity at 10 µM (BTK(h); [3]): 126%
remaining activity at 10 µM (EphA8(h); [3]): 84%
remaining activity at 10 µM (Flt3(D835Y)(h); [3]): 49%
remaining activity at 10 µM (Lck(h) activated; [3]): 73%
remaining activity at 10 µM (STK39(h); [3]): 114%
remaining activity at 10 µM (WNK1(h); [3]): 75%

Fc1ccc(CNc2ncnc3ccc(F)cc23)cc1 [5aa, 6-Fluoro-N-(4-fluorobenzyl)-4-Quinazolinamine]
remaining activity at 10 µM (BTK(h); [4]): 123%
remaining activity at 10 µM (EphA8(h); [4]): 87%
remaining activity at 10 µM (Flt3(D835Y)(h); [4]): 91%
remaining activity at 10 µM (Lck(h) activated; [4]): 93%
remaining activity at 10 µM (STK39(h); [4]): 75%
remaining activity at 10 µM (WNK1(h); [4]): 78%
